Entries after “also recorded” stand apart in the source; their conditions may differ.
How the values were obtained:
Type in all cases: in vivo, mouse
[1] = test system: BALBc mice with FRICT-ION nerve injury; assay: von Frey mechanical threshold, FRICT-ION trigeminal nerve injury model; conditions: male and female BALBc FRICT-ION mice, 5 mg/kg s.c. daily in week 3, vs vehicle
From the text: The FRICT-ION chronic neuropathic pain model combines the chemical irritation of chromic gut suture with some physical compression of the maxillary branch (V2) of the trigeminal nerve. FRICT-ION model was induced in 9-week-old mice anesthetized briefly with isoflurane (2-3%). Intraoral surgical incision was made with a small scalpel puncture at the buccal cheek crease. A piece of chromic gut suture (3 mm length, 4-0) was placed parallel to the infraorbital nerve (ION) and pushed into the tight space to follow the trigeminal nerve as it passes into the foramen rotundum of the skull. The model simulates blunt force traumatic injury to the nerve, residual wound debris, or other irritation. […]
[…] Withdrawal thresholds were determined weekly with von Frey fiber stimulation on the snout. […]
Mechanical and cold sensitivity was modified for face as previously described (Montera M A, Westlund K N, Bio-protocol2020 April 20; 10(8):e3591-e3591; Lyons et al., Neuroscience 2015 Jun. 4; 295:126-138; Ma et al., Mol Brain 2012 Dec. 28; 5:44; Montera et al., Channels (Austin). 2021 December; 15(1):31-37). Briefly, animals were gently restrained and the mechanical threshold for nocifensive head withdrawal was determined using calibrated von Frey filaments (0.008 g-6.0 g) using the Up-Down method (Chaplan et al., J Neurosci Methods 1994 July; 53(1):55-63; FIG. 2). […]

[2] = test system: HDAC5 and pain related genes in TG; assay: RT-PCR of TG gene expression
Protocol: To confirm that the anti-allodynic mechanism provided by LMK235 was accompanied by changes in RNA of specific pain relate genes, TG expression of several genes was assessed in the TG of LMK235-treated and untreated FRICT-ION groups to naïve controls with RT-PCR (FIG. 12).
Primers were ordered from Bio-Rad Laboratories, Inc. (Hercules, CA). Samples were run by UNM Human Tissue Repository Core facility. 400 μg of total RNA was transcribed into cDNA using iScript cDNA synthesis kit (Catalog #1708890, BioRad Laboratories, Inc., Hercules, CA, USA). Relative analysis of HDAC5 by Sybr Green qRT-PCR was run in order to validate the results observed via RNAseq. All primers, housekeeping gene primers, and the amplicon context sequence were purchased pre-validated from Bio-Rad Laboratories, Inc. (PrimePCR SYBR Green Assay: HDAC5, Mouse, qMmuCID0021326; Bio-Rad Laboratories, Inc., Hercules, CA). All qRT-PCR amplification reactions were done in 20 μl volumes in triplicate using iTaq Universal SYBR Green Supermix (Catalog #1725122, Bio-Rad Laboratories, Inc., Hercules, CA) in 96-well plates and run on a LightCycler 96 qRT-PCR system (Roche, Germany). The Amplification program used for amplification was an initial activation step of 95° C. for two minutes followed by 40 cycles at 95° C. for five seconds and 60° C. for 30 seconds, and concluding with a melt curve of 65° C.-95° C. with five seconds/step. qRT-PCR was done on the HDAC5 gene target and two housekeeping genes within each of the treated and untreated controls and experimental conditions. qRT-PCR data were analyzed using the 2-ΔΔcT method (Livak K J, Schmittgen T D, Methods 2001 December;25(4):402-408). Briefly, the mean ΔcT of each differentially expressed gene target assayed for, in both the experimental conditions and the untreated controls was calculated by subtracting the mean cT from the mean cT of the housekeeping genes values for each sample type. ΔΔcT was then calculated by subtracting the experimental ΔcT group from the control Act group. Expression fold change was expressed as 2-ΔΔcT.

[3] = test system: HDAC5 protein; assay: Western blot of TG HDAC5 protein; conditions: for TG HDAC5 protein levels: LMK235 treatment
Protocol: Mice were euthanized with pentobarbital (FatalPlus, 480 mg/kg) and both ipsilateral and contralateral TG were removed. TG were washed immediately in PBS and stored at −80° C. Protein from TG tissue was extracted following homogenization using a pestle and 500 μL of 1× RIPA buffer (Thermo Fisher Scientific, Inc., Waltham, MA, Cat #89,900). Samples were put on a rocking shaker for two hours and then centrifuged, and the supernatant removed to a new tube. Sample was assayed for total protein (Bradford, Thermo Fisher Scientific, Inc., Waltham, MA). Samples were then prepared for electrophoresis by mixing with 2× sample buffer and boiling for five minutes at 100° C. for denaturation.
Proteins were loaded on a 12% Tris-Glycine polyacrylamide gradient gel (Bio-Rad Laboratories, Inc., Hercules, CA) and transferred to a PVDF membrane (MilliporeSigma, Burlington, MA). Membrane was blocked for an hour with 5% nonfat milk in TBST buffer at room temperature and incubated at 4° C. with anti-HDAC5 antibody overnight (Abcam, Cambridge, UK, #ab55403, #ab2772, #ab170935). The membrane was subsequently washed with TBST and then incubated with anti-rabbit secondary with HRP for one hour at room temperature (Abcam ab6721, diluted 1:1000 in TBST). The washing was repeated and then the blot developed with chemiluminescent substrate (Thermo Fisher Scientific, Inc., Waltham, MA Cat #32,106). The blot was then imaged using a Li-Cor Odyssey FC imaging system. Signal intensity was normalized to actin (Abcam ab8227, 1:2000) or tubulin (Abcam #ab10287), which was used as a loading control. Signal intensity was analyzed using ImageJ for comparisons.

[4] = LMK235-treated FRICT-ION mice, week 10

Cc1cc(C)cc(C(=O)NOCCCCCC(=O)NO)c1 [LMK235, N-[[6-(Hydroxyamino)-6-oxohexyl]oxy]-3,5-dimethyl-benzamide]
mechanical threshold / von Frey hypersensitivity [1]: reverses von Frey hypersensitivity; also recorded: restored mechanical threshold to baseline
HDAC5 expression ([2]; LMK235-treated FRICT-ION mice): reduced
Hist1h2bc change ([2]; LMK235-treated FRICT-ION mice): 1.4 fold
Hist2h2aa1 change ([2]; LMK235-treated FRICT-ION mice): 1.6 fold
CCKBR RNA [2, 4]: normalized
GNAI2 RNA [2, 4]: partially restored
IFIT1 RNA [2, 4]: partially restored
NTS RNA [2, 4]: normalized
SCFN9 RNA [2, 4]: normalized
HDAC5 expression ([2]; LMK235-treated naïve controls): reduced
changes in HDAC10 gene ([2]; LMK235-treated naïve mice): not observed
changes in HDAC11 gene ([2]; LMK235-treated naïve mice): not observed
TG HDAC protein levels vs untreated FRICT-ION mice ([3]; LMK235-treated FRICT-ION mice, males and females): significantly lower
TG HDAC5 protein levels ([3]; female FRICT-ION mice): to naïve levels
TG HDAC5 protein levels ([3]; male FRICT-ION mice): below naïve levels
